Source: patent publication US11129870B2, “Compositions and methods for uncoupling TrkB receptor from PLC gamma 1 for the treatment of epilepsy and anxiety-like disorder” (DUKE UNIVERSITY, priority 2010, dated 2021)
Where no end group is shown, it is not given here. [ ]: non-standard residue; d: D form. pY = N[C@@H](Cc1ccc(OP(=O)(O)O)cc1)C(=O)O

Experiments:
[1] = test system: hippocampal neurons (CA3b); assay: NeuN and GFAP immunostaining of hippocampal CA3b 10 weeks after SE; format: in vivo, mouse
From the text: Neurons and astrocytes were visualized using antibodies against neuronal nuclei (mouse monoclonal to NeuN, 1:500; Millipore) and glial fibrillary acidic protein (rabbit polyclonal to GFAP, 1:1000; Sigma) detected with Alexafluor 488 coupled anti-mouse and Alexafluor 594 coupled anti-rabbit secondary antibodies (Molecular Probes), respectively. Images were captured using a Leica TCS SL confocal microscopy system equipped with a 63× oil-immersion objective lens. NeuN-positive cell counting was performed by an investigator blinded to the genotype and treatment conditions with ImageJ software (Ferreira, T. et al., (2011). The Image J User Guide) in a 260×260 μm field within the CA3b pyramidal cell layer. Mean counts were obtained from two adjacent rostral and two adjacent middle hippocampal sections ipsilateral to the infused amygdala.
Ten weeks following SE, mice were anesthetized with pentobarbital (200 mg/kg, i.p.) and underwent intra-cardiac perfusion with PBS containing heparin (5 U/ml) followed by 4% paraformaldehyde. Brains were removed, frozen by slow immersion in isopentane chilled in dry ice, cryoprotected, and sectioned. Serial 40 μm coronal sections were cut through the forebrain spanning the entire hippocampus. Adjacent sections at two levels relative to bregma (˜1.68 mm posterior designated “rostral”) or (˜2.32 mm posterior designated “middle”) were stained for NeuN and GFAP as previously described (Mouri, G. et al., (2008) Brain Res 1213:140-151) and mean counts of NeuN positive cells were obtained from two adjacent rostral and two adjacent middle hippocampal sections ipsilateral to the infused amygdala by an observer blinded to treatment.

anxiety-like behavior = assay: Light/dark box test of anxiety-like behavior 8 weeks after SE; format: in vivo, mouse; details: 8 weeks post-SE; Scr vs PBS controls, pY816 vs Scr
Procedure: It was therefore tested whether this SE-induced behavioral abnormality could also be prevented by treatment with pY816 initiated following SE. To address this question, following completion of video-EEG recording during days 29-42, anxiety-like behavior was assessed using the light-dark emergence test (Bourin, M. et al., (2003) Eur J Pharmacol 463:55-65).
Specifically, a plexiglas arena (40×40×40 cm) was placed in a room with homogenous illumination (˜300 lux). The arena was subdivided into sixteen 10×10 cm squares by lines marked on the floor. Each mouse was placed in the center of the open field and allowed to explore freely the apparatus for 5 minutes. The apparatus ([…]) consisted of two acrylic compartments. The dark compartment (30×40 cm) and light compartment (40×40×40 cm, brightly illuminated at 600 lux) were separated by a divider with a 5.5×5.5 cm opening at floor level. Mice were placed into the dark side and allowed to move freely between the two chambers with the door open for 5 minutes. During behavior tests, a video camera was mounted directly above the arena to monitor animal activity and movement. An investigator unaware of the treatment reviewed the video and recorded: 1) line crossing (frequency of crossing grid lines with all four paws) and the frequency of rearing (standing on hind legs or leaning against the walls of the arena) to assess locomotor activity in open field test; and 2) the latency to first entry into lighted compartment (entering the lighted side with all four paws) and the total time spent on the lighted side to assess anxiety-like behavior in light/dark box test.
Following completion of video-EEG monitoring for recurrent seizures, all KA-infused mice were subjected to open field and light/dark box tests at 8 weeks post-SE. Control animals underwent infusion of PBS into the amygdala and subsequently i.v. infusion of Scr or pY816 peptide and were tested 8 weeks after PBS infusion. No differences were found between Scr and pY816 treated control animals and these groups were combined for analyses.

Substance | reactive gliosis (enlarged GFAP-immunoreactive cells) in CA3b [1] | reduction of neuron loss ([1]; compared to Scr treatment) | latency to enter the lighted compartment (anxiety-like behavior) | time spent in lighted compartment (anxiety-like behavior) | reduction of neurons (NeuN immunoreactive cells) in CA3b hippocampus ([1]; compared to PBS-infused controls)
YGRKKRRQRRR-LQNLAKASPVpYLDI (YGRKKRRQRRRLQNLAKASPV[pY]LDI) [pY816] | attenuated | ~30% | significantly reduced latency | spent increased time | –
YGRKKRRQRRRLVApYQLKIAPNDLS (YGRKKRRQRRRLVA[pY]QLKIAPNDLS) [Scr, reference compound] | – | – | prolonged latency | spent less time | ~50%
